Experimental data published in publication PMC9930359, “Cytotoxicity of the methanol extracts and compounds of Brucea antidysenterica (Simaroubaceae) towards multifactorial drug-resistant human cancer cell lines” (BMC Complementary Medicine and Therapies, 2023).

Legend:
AML12 hepatocytes = assay: Resazurin reduction assay (RRA), cytotoxicity on normal hepatocytes; type: cell-based
Procedure: (§1) The RPMI-1640 medium was used for the culture of CCRF-CEM and CEM/ADR5000 cells whilst DMEM medium was used for carcinoma cells. The culture media were supplemented (complete medium) with 10% fetal bovine serum and 1% penicillin/streptomycin (Invitrogen, Eggenstein, Germany). […] To maintain the resistance phenotype of the resistant carcinoma cell lines such as MDA-MB-231/BCRP and HCT116 p53^−/−, and U87MG.ΔEGFR cells, the complete DMEM medium containing geneticin at 800 ng/ml and 400 µg/ml, respectively were used [41, 42].
(§2) Cells were cultured in a standard condition consisted of a humidified 5% CO2 atmosphere and an incubation temperature of 37 °C. The tested concentration ranges were 0.63—80 µg/mL for the botanicals and 0.78—100 µM for phytochemicals. The incubation time of the treated cells was 72 h, and the fluorescence was measured with Infinite M2000 Pro™ plate reader (Tecan, Crailsheim, Germany). The wavelengths used were 544 nm for the excitation and 590 nm for the emission. […] The degree of resistance (D.R.) was set as the ratio of the IC50 values of samples in the resistant cell line vs that of corresponding sensitive cell line. The selectivity index (S.I.) was the ratio of the IC50 value of AML12 hepatocytes vs. that of HepG2 cells [13, 48].

[1] = system: A-549 lung carcinoma cells, MCF-7 breast cancer cells, and PC-3 prostate cancer cells; details: three reported cancer cell lines ref Makong et al. [30]; cited from earlier work
HCT116 p53+/+ cells = assay: Resazurin reduction assay (RRA), cytotoxicity; type: cell-based; details: Homo sapiens, HCT-116, 72 h
Source text: (§3) In this work, 9 cancer cell lines with various drug resistance patterns as well as AML12 hepatocytes as normal control cell line were used. […] The AML12 hepatocytes were used for the comparison of the activities of the samples with HepG2 [40]. […] The RPMI-1640 medium was used for the culture of CCRF-CEM and CEM/ADR5000 cells whilst DMEM medium was used for carcinoma cells. The culture media were supplemented (complete medium) with 10% fetal bovine serum and 1% penicillin/streptomycin (Invitrogen, Eggenstein, Germany). […] To maintain the resistance phenotype of the resistant carcinoma cell lines such as MDA-MB-231/BCRP and HCT116 p53^−/−, and U87MG.ΔEGFR cells, the complete DMEM medium containing geneticin at 800 ng/ml and 400 µg/ml, respectively were used [41, 42].
as §2

U87MG cells = assay: Resazurin reduction assay (RRA), cytotoxicity; type: cell-based; details: Homo sapiens, U-87 MG, 72 h
Source text: as §3, §2

U87MG.ΔEGFR cells = assay: Resazurin reduction assay (RRA), cytotoxicity; type: cell-based, human; details: Homo sapiens; U87MG.ΔEGFR, 72 h
Procedure: as §1, §2

MDA-MB-231-pcDNA cells = assay: Resazurin reduction assay (RRA), cytotoxicity; type: cell-based; details: Homo sapiens, 72 h
Source text: as §3, §2

HCT116 p53−/− cells = assay: Resazurin reduction assay (RRA), cytotoxicity; type: cell-based, human; details: Homo sapiens, HCT-116; HCT116 p53−/−, 72 h
Procedure: as §1, §2

MDA-MB-231-BCRP cells = assay: Resazurin reduction assay (RRA), cytotoxicity; details: Homo sapiens, MDA-MB-231/BCRP, 72 h
Procedure: as §1, §2

CCRF-CEM leukemia cells = assay: Resazurin reduction assay (RRA), cytotoxicity; type: cell-based; details: Homo sapiens, 72 h
Source text: as §3, §2

HepG2 cells = assay: Resazurin reduction assay (RRA), cytotoxicity; type: cell-based; details: Homo sapiens, HepG2, 72 h
Source text: as §3, §2

CEM/ADR5000 cells = assay: Resazurin reduction assay (RRA), cytotoxicity; type: cell-based, human
Procedure: as §1, §2

SMILES: COc1cc([C@H]2Oc3c(OC)cc4ccc(=O)oc4c3O[C@@H]2CO)cc(OC)c1O [Compound 6, cleomiscosin C]
- IC50 (AML12 hepatocytes; Mus musculus, AML12 normal hepatocytes, 72 h): > 100 µM
- Selectivity index (S.I.) (AML12 hepatocytes; ratio of IC50 in AML12 vs IC50 in HepG2 cells): > 6.46
- cytotoxic activity [1]: not active
- IC50 (HCT116 p53+/+ cells): > 100 µM
- IC50 (U87MG cells): > 100 µM
- IC50 (U87MG.ΔEGFR cells): > 100 µM
- IC50 (MDA-MB-231-pcDNA cells): > 100 µM
- IC50 (HCT116 p53−/− cells): > 100 µM
- IC50 (MDA-MB-231-BCRP cells): > 100 µM
- IC50 (CCRF-CEM leukemia cells): 23.2 ± 1.63 µM
- IC50 (HepG2 cells): 15.5 ± 1.06 µM
- IC50 (CEM/ADR5000 cells; Homo sapiens, CEM/ADR5000, 72 h): > 100 µM
- Degree of resistance (D.R.) (CEM/ADR5000 cells; ratio of IC50 CEM/ADR5000 vs CCRF-CEM): > 4.31
- melting point: 254 to 256 °C
